Data: patent US6248736A, “4-oxo-1,4-dihydro-3-quinolinecarboxamides as antiviral agents” (Pharmacia & Upjohn Company, priority 1999, dated 2001)
Like-named read-outs stand apart in the source and are kept apart here.

How the values were obtained:
HCMV polymerase = target: T1, HCMV polymerase (Human cytomegalovirus, UniProt P08546); assay: biochemical
T1 construct: made in house; host or cells: recombinant baculovirus-infected SF-9 cells
Description: (§1) The HCMV polymerase assay is performed using a scintillation proximity assay (SPA) as described in several references, such as N. D. Cook, et al., Pharmaceutical Manufacturing International, pages 49-53 (1992); K. Takeuchi, Laboratory Practice, September issue (1992); U.S. Pat. No. 4,568,649 (1986); which are incorporated by reference herein. Reactions are performed in 96-well plates. The assay is conducted in 100 μl volume with 5.4 mM HEPES (pH 7.5), 11.7 mM KCl, 4.5 mM MgCl2, 0.36 mg/ml BSA, and 90 nM ^3 H-dTTP. Assays are run with and without CHAPS, (3-[(3-Cholamidopropyl)-dimethylammonio]-1-propane-sulfonate) at a final concentration of 2 mM. HCMV polymerase is diluted in enzyme dilution buffer containing 50% glycerol, 250 mM NaCl, 10 mM HEPES (pH 7.5), 100 μg/ml BSA, and 0.01% sodium azide. The HCMV polymerase, which is expressed in recombinant baculovirus-infected SF-9 cells and purified according to literature procedures, is added at 10% (or 10 μl) of the final reaction volume, i.e., 100 μl. Compounds are diluted in 50% DMSO and 10 μl are added to each well. Control wells contain an equivalent concentration of DMSO. Unless noted otherwise, reactions are initiated via the addition of 6 nM biotinylated poly(dA)-oligo(dT) template/primer to reaction mixtures containing the enzyme, substrate, and compounds of interest. Plates are incubated in a 25 C or 37 C H2 O bath and terminated via the addition of 40 μl/reaction of 0.5 M EDTA (pH 8) per well. Reactions are terminated within the time-frame during which substrate incorporation is linear and varied depending upon the enzyme and conditions used, i.e., 30 min. for HCMV polymerase. Ten μl of streptavidin-SPA beads (20 mg/ml in PBS/10% glycerol) are added following termination of the reaction. Plates are incubated 10 min. at 37 C, then equilibrated to room temperature, and counted on a Packard Topcount. Linear regressions are performed and IC50 's are calculated using computer software.
A modified version of the above HCMV polymerase assay is performed as described above, but with the following changes: Compounds are diluted in 100% DMSO until final dilution into assay buffer. In the previous assay, compounds are diluted in 50% DMSO. 4.5 mM dithiotherotol (DTT) is added to the polymerase buffer. […] Other viral polymerase assays are performed using procedures similar to those described above.

HSV polymerase = HSV polymerase (Human herpesvirus 1, UniProt P04293); assay: HSV polymerase assay (procedure similar to the HCMV polymerase assay); type: biochemical
Description: as §1, with “software. […]” for “software.”

VZV polymerase = VZV polymerase (Varicella-zoster virus, UniProt P09252); assay: VZV polymerase assay (procedure similar to the HCMV polymerase assay); type: biochemical
Description: as §1, with “software. […]” for “software.”

[1] = HCMV polymerase, modified SPA, compounds in 100% DMSO, 4.5 mM DTT added

Sequence of VZV polymerase (P09252 whole entry): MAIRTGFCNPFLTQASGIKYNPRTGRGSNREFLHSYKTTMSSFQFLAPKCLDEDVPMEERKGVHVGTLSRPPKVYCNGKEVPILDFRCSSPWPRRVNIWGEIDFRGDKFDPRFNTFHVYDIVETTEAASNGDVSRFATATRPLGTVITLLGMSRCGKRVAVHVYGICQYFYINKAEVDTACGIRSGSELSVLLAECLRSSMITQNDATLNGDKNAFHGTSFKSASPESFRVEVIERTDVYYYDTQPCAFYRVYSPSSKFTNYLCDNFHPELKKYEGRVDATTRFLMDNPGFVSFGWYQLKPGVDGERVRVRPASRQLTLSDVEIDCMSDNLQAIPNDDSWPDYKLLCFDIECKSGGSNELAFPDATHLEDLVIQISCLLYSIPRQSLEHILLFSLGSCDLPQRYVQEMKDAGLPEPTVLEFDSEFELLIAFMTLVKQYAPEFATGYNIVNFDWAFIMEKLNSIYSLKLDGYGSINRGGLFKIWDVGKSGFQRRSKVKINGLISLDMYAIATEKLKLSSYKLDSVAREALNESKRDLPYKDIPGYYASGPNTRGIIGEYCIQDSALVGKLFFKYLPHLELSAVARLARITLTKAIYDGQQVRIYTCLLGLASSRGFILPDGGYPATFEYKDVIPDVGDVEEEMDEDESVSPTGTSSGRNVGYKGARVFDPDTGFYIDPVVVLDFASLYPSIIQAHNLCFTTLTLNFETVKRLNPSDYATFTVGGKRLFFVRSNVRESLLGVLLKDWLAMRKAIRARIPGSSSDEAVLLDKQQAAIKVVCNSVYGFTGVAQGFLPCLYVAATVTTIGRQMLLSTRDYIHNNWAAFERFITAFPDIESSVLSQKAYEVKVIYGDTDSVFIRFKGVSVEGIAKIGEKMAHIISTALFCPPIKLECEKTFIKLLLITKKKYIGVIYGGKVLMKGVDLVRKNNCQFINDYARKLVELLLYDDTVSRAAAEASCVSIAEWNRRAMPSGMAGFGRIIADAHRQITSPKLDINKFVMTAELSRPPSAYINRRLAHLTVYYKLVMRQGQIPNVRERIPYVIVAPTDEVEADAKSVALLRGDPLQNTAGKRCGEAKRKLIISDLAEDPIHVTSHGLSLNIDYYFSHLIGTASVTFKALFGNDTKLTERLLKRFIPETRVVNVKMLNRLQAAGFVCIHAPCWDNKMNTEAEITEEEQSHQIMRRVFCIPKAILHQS
Sequence of HSV polymerase (P04293 whole entry): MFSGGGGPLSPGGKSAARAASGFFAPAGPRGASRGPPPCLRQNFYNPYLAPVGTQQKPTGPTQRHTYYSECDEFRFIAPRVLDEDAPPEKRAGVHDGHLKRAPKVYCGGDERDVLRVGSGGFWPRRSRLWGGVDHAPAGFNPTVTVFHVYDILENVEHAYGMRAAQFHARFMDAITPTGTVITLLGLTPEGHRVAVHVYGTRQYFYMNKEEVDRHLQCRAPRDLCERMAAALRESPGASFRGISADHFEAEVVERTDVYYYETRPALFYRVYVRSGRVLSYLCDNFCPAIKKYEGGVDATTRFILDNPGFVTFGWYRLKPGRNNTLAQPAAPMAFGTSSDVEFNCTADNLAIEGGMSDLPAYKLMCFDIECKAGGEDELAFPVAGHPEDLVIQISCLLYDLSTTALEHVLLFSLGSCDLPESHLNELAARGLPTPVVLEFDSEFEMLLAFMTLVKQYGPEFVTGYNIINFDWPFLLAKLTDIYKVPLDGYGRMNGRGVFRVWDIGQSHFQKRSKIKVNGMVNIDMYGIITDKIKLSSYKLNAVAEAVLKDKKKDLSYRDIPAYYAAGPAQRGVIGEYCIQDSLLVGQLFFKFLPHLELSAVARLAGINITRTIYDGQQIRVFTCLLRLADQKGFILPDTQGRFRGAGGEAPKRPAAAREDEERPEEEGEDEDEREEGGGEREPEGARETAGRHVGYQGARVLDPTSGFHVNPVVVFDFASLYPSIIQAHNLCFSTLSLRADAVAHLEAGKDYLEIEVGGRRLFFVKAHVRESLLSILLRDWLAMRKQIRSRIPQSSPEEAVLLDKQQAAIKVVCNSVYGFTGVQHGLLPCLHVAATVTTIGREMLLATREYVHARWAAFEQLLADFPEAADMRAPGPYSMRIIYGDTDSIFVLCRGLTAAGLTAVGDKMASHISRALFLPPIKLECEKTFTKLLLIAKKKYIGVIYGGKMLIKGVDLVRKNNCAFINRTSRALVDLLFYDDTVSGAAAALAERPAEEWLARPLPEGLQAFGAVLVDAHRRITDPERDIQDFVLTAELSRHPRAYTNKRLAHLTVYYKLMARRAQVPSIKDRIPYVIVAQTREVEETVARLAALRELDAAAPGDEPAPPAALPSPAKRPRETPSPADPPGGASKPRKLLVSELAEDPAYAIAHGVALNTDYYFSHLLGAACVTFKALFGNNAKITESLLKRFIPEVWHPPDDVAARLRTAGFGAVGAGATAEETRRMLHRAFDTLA
T1 sequence (P08546 whole entry): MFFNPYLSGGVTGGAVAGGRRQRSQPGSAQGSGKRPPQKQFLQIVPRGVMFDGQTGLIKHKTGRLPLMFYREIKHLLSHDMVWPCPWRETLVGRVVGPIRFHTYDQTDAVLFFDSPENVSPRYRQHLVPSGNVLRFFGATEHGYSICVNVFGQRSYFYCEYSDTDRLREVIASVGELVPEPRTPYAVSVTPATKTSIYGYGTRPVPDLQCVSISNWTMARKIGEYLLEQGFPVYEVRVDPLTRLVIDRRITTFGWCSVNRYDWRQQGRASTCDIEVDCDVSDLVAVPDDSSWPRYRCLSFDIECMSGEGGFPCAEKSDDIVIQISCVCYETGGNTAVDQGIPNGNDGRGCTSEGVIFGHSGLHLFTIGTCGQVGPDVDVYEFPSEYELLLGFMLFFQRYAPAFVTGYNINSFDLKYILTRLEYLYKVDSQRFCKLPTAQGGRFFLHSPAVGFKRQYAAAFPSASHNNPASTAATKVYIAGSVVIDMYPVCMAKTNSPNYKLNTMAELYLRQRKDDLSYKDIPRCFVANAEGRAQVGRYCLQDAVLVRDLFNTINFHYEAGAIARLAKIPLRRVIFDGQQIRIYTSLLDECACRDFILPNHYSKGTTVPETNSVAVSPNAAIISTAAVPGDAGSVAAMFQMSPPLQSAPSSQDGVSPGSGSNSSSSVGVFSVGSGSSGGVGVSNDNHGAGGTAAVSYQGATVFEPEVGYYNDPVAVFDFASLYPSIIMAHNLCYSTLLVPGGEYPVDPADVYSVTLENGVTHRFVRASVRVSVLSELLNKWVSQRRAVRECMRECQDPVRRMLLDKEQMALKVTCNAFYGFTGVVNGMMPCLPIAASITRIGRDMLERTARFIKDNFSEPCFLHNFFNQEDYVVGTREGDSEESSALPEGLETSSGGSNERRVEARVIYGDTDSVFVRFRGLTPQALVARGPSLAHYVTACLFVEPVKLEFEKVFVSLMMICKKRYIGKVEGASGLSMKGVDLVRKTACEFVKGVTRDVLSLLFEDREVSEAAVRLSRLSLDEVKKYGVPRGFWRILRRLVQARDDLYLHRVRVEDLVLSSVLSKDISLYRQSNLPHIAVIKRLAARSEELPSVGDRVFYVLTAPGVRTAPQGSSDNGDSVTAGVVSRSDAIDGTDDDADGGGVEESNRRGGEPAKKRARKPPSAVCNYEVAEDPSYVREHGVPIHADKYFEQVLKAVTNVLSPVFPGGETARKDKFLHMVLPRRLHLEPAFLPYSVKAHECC

| SMILES | IC50 (HCMV polymerase) [nM] | IC50 (HCMV polymerase; [1]) [nM] | IC50 (HSV polymerase) [nM] | IC50 (VZV polymerase) [nM] |
| --- | --- | --- | --- | --- |
| CC(C)(C)n1cc(C(=O)NCc2ccc(Cl)cc2)c(=O)c2cc(CCCO)ccc21 [Example 6, 1-(tert-Butyl)-N-(4-chlorobenzyl)-6-(3-hydroxypropyl)-4-oxo-1,4-dihydro-3-quinolinecarboxamide] | 2800 | – | – | – |
| Cn1cc(C(=O)NCc2ccc(Cl)cc2)c(=O)c2cc(CN3CCS(=O)(=O)CC3)ccc21 [Example 8, N-(4-chlorobenzyl)-6-[(1,1-dioxo-1',4-thiazinan-4-yl)methyl]-1-methyl-4-oxo-1,4-dihydro-3-quinolinecarboxamide] | – | 2600 | – | – |
| Cn1cc(C(=O)NCc2ccc(Cl)cc2)c(=O)c2cc(CN3CCOCC3)cc(F)c21 [Example 10, N-(4-chlorobenzyl)-8-fluoro-1-methyl-6-(4-morpholinylmethyl)-4-oxo-1,4-dihydro-3-quinolinecarboxamide] | 1000 | – | – | – |
| Cn1cc(C(=O)NCc2ccc(Cl)cc2)c(=O)c2cc(CN3CCOCC3)ccc21 [Example 3, N-(4-Chlorobenzyl)-1-methyl-6-(4-morpholinylmethyl)-4-oxo-1,4-dihydro-3-quinolinecarboxamide] | – | 400 | 740 | 440 |
| O=C(NCc1ccc(Cl)cc1)c1cn(CCO)c2ccc(CCCO)cc2c1=O [Example 4, N-(4-Chlorobenzyl)-1-(2-hydroxyethyl)-6-(3-hydroxypropyl)-4-oxo-1,4-dihydro-3-quinolinecarboxamide] | – | 370 | – | – |
| Cn1cc(C(=O)NCc2ccc(Cl)cc2)c(=O)c2cc(CO)ccc21 [Example 2, N-(4-Chlorobenzyl)-6-(hydroxymethyl)-1-methyl-4-oxo-1,4-dihydro-3-quinolinecarboxamide] | – | 7800 | – | – |
| Cn1cc(C(=O)NCc2ccc(Cl)cc2)c(=O)c2cc(CN3CCSCC3)ccc21 [Example 7, N-(4-Chlorobenzyl)-1-methyl-4-oxo-6-(4-thiomorpholinyl-methyl)-1,4-dihydro-3-quinolinecarboxamide] | – | 2500 | – | – |
| Cn1cc(C(=O)NCc2ccc(Cl)cc2)c(=O)c2cc(C(C)(C)CCO)ccc21 [Example 1, N-(4-chlorobenzyl)-6-(3-hydroxy-1,1-dimethylpropyl)-1-methyl-4-oxo-1,4-dihydro-3-quinolinecarboxamide] | – | 500 | 1800 | 2000 |
| Cn1cc(C(=O)NCc2ccc(Cl)cc2)c(=O)c2cc(CN3CC[S+]([O-])CC3)ccc21 [Example 9, N-(4-chlorobenzyl)-1-methyl-4-oxo-6-[(1-oxo-1',4-thiazinan-4-yl)methyl]-1,4-dihydro-3-quinolinecarboxamide] | – | 4700 | – | – |
| Cn1cc(C(=O)NCc2ccc(Cl)cc2)c(=O)c2cc(CCCO)ccc21 [Example 5, N-(4-Chlorobenzyl)-6-(3-hydroxypropyl)-1-methyl-4-oxo-1,4-dihydro-3-quinolinecarboxamide] | – | 480 | 320 | 410 |
